ChEMBL document CHEMBL1147837, “Methyl 2-(2-(4-formylphenoxy)acetamido)-2-substituted acetate derivatives: a new class of acetylcholinesterase inhibitors” (Bioorg Med Chem Lett, 2007)

Tests used:
Acetylcholinesterase = Acetylcholinesterase (Torpedo californica, UniProt P04058); test: Inhibition of AChE
Butyrylcholinesterase = Butyrylcholinesterase (Equus caballus, UniProt Q9N1N9); test: Inhibition of BuChE in horse serum
[1] = Selectivity for Torpedo californica AChE over horse BuChE

Acetylcholinesterase, sequence (P04058 whole entry): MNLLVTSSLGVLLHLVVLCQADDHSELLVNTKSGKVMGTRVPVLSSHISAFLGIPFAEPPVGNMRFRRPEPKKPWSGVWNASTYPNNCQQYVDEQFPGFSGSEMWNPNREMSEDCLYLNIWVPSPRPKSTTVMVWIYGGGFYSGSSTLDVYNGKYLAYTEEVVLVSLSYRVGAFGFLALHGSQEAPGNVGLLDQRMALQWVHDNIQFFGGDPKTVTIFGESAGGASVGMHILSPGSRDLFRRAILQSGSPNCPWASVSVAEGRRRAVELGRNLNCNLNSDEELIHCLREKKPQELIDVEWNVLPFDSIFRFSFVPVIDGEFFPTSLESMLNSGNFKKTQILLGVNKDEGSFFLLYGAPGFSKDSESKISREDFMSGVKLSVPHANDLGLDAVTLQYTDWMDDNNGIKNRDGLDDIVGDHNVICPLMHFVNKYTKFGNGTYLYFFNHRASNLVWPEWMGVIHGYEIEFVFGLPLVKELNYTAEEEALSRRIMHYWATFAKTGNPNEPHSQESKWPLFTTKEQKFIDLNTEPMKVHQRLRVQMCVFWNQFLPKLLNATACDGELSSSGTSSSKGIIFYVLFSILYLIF
Butyrylcholinesterase, sequence (Q9N1N9 whole entry): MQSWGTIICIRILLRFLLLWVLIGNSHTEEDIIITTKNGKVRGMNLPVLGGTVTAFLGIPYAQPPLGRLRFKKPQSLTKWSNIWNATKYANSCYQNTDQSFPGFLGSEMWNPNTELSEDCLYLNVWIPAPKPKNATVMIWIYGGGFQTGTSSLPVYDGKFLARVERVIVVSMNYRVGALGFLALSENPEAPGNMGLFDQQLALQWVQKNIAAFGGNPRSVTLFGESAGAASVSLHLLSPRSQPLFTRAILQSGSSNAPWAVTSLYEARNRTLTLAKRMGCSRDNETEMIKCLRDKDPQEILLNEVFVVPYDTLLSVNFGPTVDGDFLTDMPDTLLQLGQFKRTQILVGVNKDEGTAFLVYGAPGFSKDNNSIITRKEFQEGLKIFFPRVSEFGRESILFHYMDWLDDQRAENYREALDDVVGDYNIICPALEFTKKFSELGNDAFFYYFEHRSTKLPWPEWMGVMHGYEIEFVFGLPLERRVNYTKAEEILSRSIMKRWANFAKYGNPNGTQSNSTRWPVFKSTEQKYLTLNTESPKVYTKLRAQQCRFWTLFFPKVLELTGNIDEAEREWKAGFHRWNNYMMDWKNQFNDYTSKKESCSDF

Structure (SMILES)	IC50 (Acetylcholinesterase) [µM]	IC50 (Butyrylcholinesterase) [µM]	Ratio IC50 [1]
COC(=O)C(C)NC(=O)COc1ccc(C=O)cc1 (stereo not drawn)	0.19		
COC(=O)CNC(=O)COc1ccc(C=O)cc1	98.9		
COC(=O)C(Cc1ccccc1)NC(=O)COc1ccc(C=O)cc1 (stereo not drawn)	4.96		
COC(=O)C(Cc1c[nH]c2ccccc12)NC(=O)COc1ccc(C=O)cc1 (stereo not drawn)	0.28	33.9	121
COC(=O)CCC(NC(=O)COc1ccc(C=O)cc1)C(=O)OC (stereo not drawn)	> 200		
O=Cc1ccc(O)cc1 [4-HYDROXYBENZALDEHYDE]	> 1000		
